As usually defined, the IC50 is the concentration needed to halve the response being measured. Lower therefore signals higher potency.

Assay type in all cases: functional, cell-based
One test relates to HeLa. The test is described as follows: Antiproliferative activity against human HeLa cell line.
The next test has as its system HT-29. As to the kind of experiment: Antiproliferative activity against human HT29 cell line.
A further test has as its system MCF7. The test is described as follows: Antiproliferative activity against human MCF7 cell line.
The subject of another test is K562. The test is described as follows: Antiproliferative activity against human K562 cell line.
The test system of the next test is MRC5. As to the kind of experiment: Antiproliferative activity against human MRC5 cell line.
A further test relates to HL-60. As to the kind of experiment: Antiproliferative activity against human HL60 cell line.

Turning to `CCCCCC(=O)N[C@@H]1[C@H](O)[C@@H](CO)O[C@H]1c1nc(C(N)=O)cs1`, the concentration for half-maximal inhibition (IC50) in the test on HeLa was 8.75 µM; in the test on HT-29, above 100 µM; in the test with MCF7, 0.014 µM; in the test on K562, above 100 µM; with MRC5, above 100 µM; in the test on HL-60, above 100 µM.

For the compound `CCCCCCCCCCCC(=O)N[C@@H]1[C@H](O)[C@@H](CO)O[C@H]1c1nc(C(N)=O)cs1`, the IC50 was 3.22 µM in the test on HeLa; 0.011 µM with HT-29; above 100 µM in the test with MCF7; 35.6 µM in the test with K562; above 100 µM in the test with MRC5; 4.82 µM in the test on HL-60.

The compound `NC(=O)c1csc([C@@H]2O[C@H](CO)[C@@H](O)[C@H]2O)n1` [TIAZOFURIN] returned an IC50 with MCF7 of 7.98 µM.

(Values after ChEMBL document CHEMBL1147017, “Synthesis and antiproliferative activity of two new tiazofurin analogues with 2'-amido functionalities” (Bioorg Med Chem Lett, 2006).)
